Results: patent US7588892B2, “Reagent sets and gene signatures for renal tubule injury” (Entelos, Inc., priority 2004, dated 2009)

Test system: renal tubules
Assay: 28-day repeat dose study of known nephrotoxicants, kidney histopathology on day 5 and day 28
Type: in vivo, rat
Details: after 4 weeks of dosing, kidney histopathology
Procedure: 28-day repeat dose studies were conducted on known nephrotoxicants. Doses were chosen that would not cause histological or clinical evidence of renal tubular injury after 5 days of dosing, but would cause histological evidence of tubular injury after 28 days of dosing. Animals were assigned to groups such that mean body weights were within 10% of the mean vehicle control group. Test compounds were administered either orally (10 ml of corn oil/kg body weight) or by intra-peritoneal injection (5 ml of saline/kg body weight). Animals were dosed once daily starting on day 0, and necropsied 24 hrs after the last dose following an overnight fast on day 5 (n=5) and day 28 (n=10). An equivalent number of time- and vehicle-matched control rats were treated concurrently.
To derive a signature predictive of renal tubular injury, it is necessary to first define both nephrotoxic and non-nephrotoxic treatments from short-term studies devoid of tissue injury that can be used to model the early transcriptional effects that will be predictive of late-onset toxicity.
Doses were chosen that would not cause histological or clinical evidence of renal tubular injury after 5 days of dosing, but would cause histological evidence of tubular injury after 28 days of dosing.
Male Sprague-Dawley (Crl:CD®(SD)(IGS)BR) rats (Charles River Laboratories, Portage, Mich.), weight matched, 7 to 8 weeks of age, were housed individually in hanging, stainless steel, wire-bottom cages in a temperature (66-77° F.), light (12-hour dark/light cycle) and humidity (30-70%) controlled room. […] Housing and treatment of the animals were in accordance with regulations outlined in the USDA Animal Welfare Act (9 CFR Parts 1, 2 and 3).
All animals were monitored daily for clinical observations approximately 1 hr after dosing. […] Paired organs were weighed together. Body weights were recorded pre-test and daily thereafter for reference database (i.e., DrugMatrix™) studies, and on days 0, 3, 5, 7, 14 and 28 for the sub-chronic studies. Terminal body weights were measured at necropsy and used to calculate relative organ weights and percent body weight gain relative to day 0.
The right kidney was preserved in 10% buffered formalin for tissue fixation and subsequently embedded in paraffin, sectioned and stained with hematoxylin and eosin. Sections (5 μm thick) were examined under light microscope by Board Certified Pathologists for histopathological lesions. The left kidney was snap frozen in liquid nitrogen for subsequent RNA extraction.

Compound | incidence of karyomegaly
N.N.[Cl][Pt][Cl] [CISPLATIN] | high incidence
[Cl-].[Cl-].[Co+2] [COBALT (II) CHLORIDE] | high incidence
N.N.O=C([O-])C1(C(=O)[O-])CCC1.[Pt+2] [CARBOPLATIN] | high incidence
CC(=O)[O-].CC(=O)[O-].[Pb+2] [LEAD (II) ACETATE] | high incidence

Same assay, conditions: day 5, kidney histopathology

Compound | mild tubular dilation and proteinaceous casts, animals affected
CC(=O)[O-].CC(=O)[O-].[Pb+2] [LEAD (II) ACETATE] | one

Same assay, conditions: day 5, kidney histopathology, n=5

Compound | incidence of karyomegaly [rats]
N.N.[Cl][Pt][Cl] [CISPLATIN] | 3
N.N.O=C([O-])C1(C(=O)[O-])CCC1.[Pt+2] [CARBOPLATIN] | 5

Same assay, conditions: day 28, kidney histopathology

Compound | evidence of tubular injury
CCCCCCCCCc1ccc(O)cc1 [4-NONYLPHENOL] | clear evidence of tubular injury
O=[N+]([O-])c1cc([As](=O)(O)O)ccc1O [ROXARSONE] | clear evidence of tubular injury

Same assay, conditions: day 28, kidney histopathology, n=10

Compound | incidence of interstitial inflammation [rats] | proteinaceous casts, tubular cysts and mineralization, animals affected
CCCCCCCCCc1ccc(O)cc1 [4-NONYLPHENOL] | 6 | one
O=[N+]([O-])c1cc([As](=O)(O)O)ccc1O [ROXARSONE] | 6 | one

Same assay, conditions: male Sprague-Dawley rats, daily dose, route and vehicle of Table 2; late-onset renal tubular injury empirically confirmed after 28 days of dosing; expression profile day 5

Compound | Class (nephrotoxic / non-nephrotoxic training label)
CCN[C@@H]1C[C@H](N)[C@@H](O[C@H]2OC(CN)=CC[C@H]2N)[C@H](O)[C@H]1O[C@H]1OC[C@](C)(O)[C@H](NC)[C@H]1O [NETILMICIN] | Nephrotoxic
[Cl][Cd][Cl] [CADMIUM CHLORIDE] | Nephrotoxic
O=[N+]([O-])c1cc([As](=O)(O)O)ccc1O [ROXARSONE] | Nephrotoxic
COc1cccc2c1C(=O)c1c(O)c3c(c(O)c1C2=O)C[C@@](O)(C(C)=O)C[C@@H]3O[C@H]1C[C@H](N)[C@H](O)[C@H](C)O1 [DAUNORUBICIN] | Nephrotoxic
NC[C@H]1O[C@H](O[C@H]2[C@H](O)[C@@H](O[C@H]3O[C@H](CO)[C@@H](O)[C@H](N)[C@H]3O)[C@H](N)C[C@@H]2N)[C@H](N)C[C@@H]1O [TOBRAMYCIN] | Nephrotoxic
[Cl-].[Cl-].[Co+2] [COBALT (II) CHLORIDE] | Nephrotoxic
N.N.O=C([O-])C1(C(=O)[O-])CCC1.[Pt+2] [CARBOPLATIN] | Nephrotoxic
COc1cccc2c1C(=O)c1c(O)c3c(c(O)c1C2=O)C[C@@](O)(C(=O)CO)C[C@@H]3O[C@H]1C[C@H](N)[C@H](O)[C@H](C)O1 [DOXORUBICIN] | Nephrotoxic
GENTAMICIN | Nephrotoxic
CC(=O)[O-].CC(=O)[O-].[Pb+2] [LEAD (II) ACETATE] | Nephrotoxic
CC(=O)[C@]1(O)Cc2c(O)c3c(c(O)c2[C@@H](O[C@H]2C[C@H](N)[C@H](O)[C@H](C)O2)C1)C(=O)c1ccccc1C3=O [IDARUBICIN] | Nephrotoxic
NCC[C@H](O)C(=O)N[C@@H]1C[C@H](N)[C@@H](O[C@H]2O[C@H](CN)[C@@H](O)[C@H](O)[C@H]2O)[C@H](O)[C@H]1O[C@H]1O[C@H](CO)[C@@H](O)[C@H](N)[C@H]1O [AMIKACIN] | Nephrotoxic

Same assay, conditions: rat, in vivo

Compound | Class (nephrotoxic / non-nephrotoxic training label)
CCCCCCCCCc1ccc(O)cc1 [4-NONYLPHENOL] | Nephrotoxic

Test system: renal tubules
Assay: not given
Details: rats, daily dose, route and vehicle of Table 2, day 5/7; absence of nephrotoxicity asserted from PDR and published literature; no histological injury on day 5/7; cited from earlier work

Compound | Class (nephrotoxic / non-nephrotoxic training label)
CCCC(CCC)C(=O)O [VALPROIC ACID] | Non-nephrotoxic
CC(C)(c1ccc(O)cc1)c1ccc(O)cc1 [BISPHENOL A] | Non-nephrotoxic
O=C1C(CC[S+]([O-])c2ccccc2)C(=O)N(c2ccccc2)N1c1ccccc1 (centres unmarked) [SULFINPYRAZONE] | Non-nephrotoxic
C[C@H]1O[C@H](O[C@H]2[C@H](O)[C@@H](O)[C@@H](O[C@H]3[C@H](O)[C@@H](O)C(O)O[C@@H]3CO)O[C@@H]2CO)[C@H](O)[C@@H](O)[C@@H]1N[C@H]1C=C(CO)[C@@H](O)[C@H](O)[C@H]1O (some centres unmarked) [ACARBOSE] | Non-nephrotoxic
CCOc1nc2cccc(C(=O)O)c2n1Cc1ccc(-c2ccccc2-c2nnn[nH]2)cc1 | Non-nephrotoxic
CC(C)CN(C[C@@H](O)[C@H](Cc1ccccc1)NC(=O)O[C@H]1CCOC1)S(=O)(=O)c1ccc(N)cc1 | Non-nephrotoxic
CN(C)C=O [N,N-DIMETHYLFORMAMIDE] | Non-nephrotoxic
CCN(CC)N=O [N-NITROSODIETHYLAMINE] | Non-nephrotoxic
CC(C)OC(=O)C(C)(C)Oc1ccc(C(=O)c2ccc(Cl)cc2)cc1 [FENOFIBRATE] | Non-nephrotoxic
NC(=O)N1C(=O)/C(=C(\O)c2cccs2)c2cc(Cl)ccc21 [TENIDAP] | Non-nephrotoxic
NCC(=O)O [GLYCINE] | Non-nephrotoxic
CS(=O)(=O)c1ccc([C@@H](O)[C@@H](CO)NC(=O)C(Cl)Cl)cc1 [THIAMPHENICOL] | Non-nephrotoxic
Cn1cnc([N+](=O)[O-])c1Sc1ncnc2nc[nH]c12 [AZATHIOPRINE] | Non-nephrotoxic
CCOC(=O)C(C)(C)Oc1ccc(Cl)cc1 [CLOFIBRATE] | Non-nephrotoxic
CCC[C@@H]1C[C@@H](C(=O)N[C@@H]([C@H]2O[C@H](SC)[C@H](O)[C@@H](O)[C@H]2O)[C@@H](C)O)N(C)C1 [LINCOMYCIN] | Non-nephrotoxic
CCOC(=O)[C@H](CCc1ccccc1)N[C@@H](C)C(=O)N1[C@H](C(=O)O)C[C@@H]2CCC[C@@H]21 | Non-nephrotoxic
Cc1oncc1C(=O)Nc1ccc(C(F)(F)F)cc1 [LEFLUNOMIDE] | Non-nephrotoxic
CC(C)n1c(/C=C/C(O)CC(O)CC(=O)O)c(-c2ccc(F)cc2)c2ccccc21 (centres unmarked) [FLUVASTATIN] | Non-nephrotoxic

Compound | Class (nephrotoxic / non-nephrotoxic training label)
CO[C@H]1C[C@@H]2CC[C@@H](C)[C@@](O)(O2)C(=O)C(=O)N2CCCC[C@H]2C(=O)O[C@H]([C@H](C)C[C@@H]2CC[C@@H](O)[C@H](OC)C2)CC(=O)[C@H](C)/C=C(\C)[C@@H](O)[C@@H](OC)C(=O)[C@H](C)C[C@H](C)/C=C/C=C/C=C/1C [RAPAMYCIN] | Non-nephrotoxic
CC12CCC(CC1)C(C)(C)O2 [EUCALYPTOL] | Non-nephrotoxic
Cc1ccc(S(=O)(=O)NC(=O)NN2CC3CCCC3C2)cc1 (centres unmarked) [GLICLAZIDE] | Non-nephrotoxic
Oc1c(Cl)cc(Cl)cc1Sc1cc(Cl)cc(Cl)c1O [BITHIONOL] | Non-nephrotoxic
CNC[C@H](O)[C@@H](O)[C@H](O)[C@H](O)CO.CNC[C@H](O)[C@@H](O)[C@H](O)[C@H](O)CO.O=C([O-])CN(CCN(CC(=O)[O-])CC(=O)O)CCN(CC(=O)[O-])CC(=O)O.[Gd+3] [GADOPENTETATE DIMEGLUMINE] | Non-nephrotoxic
N.N.[Cl][Pt+2][Cl] [TRANSPLATIN] | Non-nephrotoxic
CC[C@H](C)C(=O)O[C@H]1C[C@@H](C)C=C2C=C[C@H](C)[C@H](CC[C@@H]3C[C@@H](O)CC(=O)O3)[C@H]21 [LOVASTATIN] | Non-nephrotoxic
Cc1ccc(-c2cc(C(F)(F)F)nn2-c2ccc(S(N)(=O)=O)cc2)cc1 [CELECOXIB] | Non-nephrotoxic
CC(C)[C@H](N)C(=O)OCCOCn1cnc2c(=O)[nH]c(N)nc21 [VALACYCLOVIR] | Non-nephrotoxic
CCO [ETHANOL] | Non-nephrotoxic
Cc1cc(CC(=O)O)n(C)c1C(=O)c1ccc(Cl)cc1 [ZOMEPIRAC] | Non-nephrotoxic
CO[C@H]1/C=C/O[C@@]2(C)Oc3c(C)c(O)c4c(c3C2=O)C2=NC3(CCN(CC(C)C)CC3)NC2=C(NC(=O)/C(C)=C\C=C\[C@H](C)[C@H](O)[C@@H](C)[C@@H](O)[C@@H](C)[C@H](OC(C)=O)[C@@H]1C)C4=O [RIFABUTIN] | Non-nephrotoxic
COc1ccc2cc(CC(=O)O)ccc2c1 | Non-nephrotoxic
CC(=O)Oc1ccccc1C(=O)O [ASPIRIN] | Non-nephrotoxic
Cc1ccc(C)c(OCCCC(C)(C)C(=O)O)c1 [GEMFIBROZIL] | Non-nephrotoxic
C[C@H](CS)C(=O)N1CCC[C@H]1C(=O)O [CAPTOPRIL] | Non-nephrotoxic
CNCCc1ccccn1 [BETAHISTINE] | Non-nephrotoxic
CC(c1cc2ccccc2s1)N(O)C(N)=O (centres unmarked) [ZILEUTON] | Non-nephrotoxic
